Source: the NIST ThermoML archive (doi:10.1016/j.jct.2007.06.013)
Numbers after ± are expanded uncertainties.

How the values were obtained:
[1] = molar heat capacity at constant pressure; details: Liquid, calorimeter with the thermal relaxation.
[2] = molar heat capacity at constant pressure; xn = mol fraction of the nth substance listed; details: Liquid, calorimeter with the thermal relaxation.

N [ammonia]
[1]
Details	molar heat capacity at constant pressure [J/K/mol]
280 K, 1000 kPa	76.81 ± 2
280 K, 5000 kPa	75.62 ± 4.6
300 K, 5000 kPa	76.81 ± 3.4
320 K, 5000 kPa	77.83 ± 2
360 K, 5000 kPa	95.2 ± 1.7
360 K, 10000 kPa	92.82 ± 1.7
360 K, 15000 kPa	90.26 ± 3.1

N [ammonia] + O
molar heat capacity at constant pressure [J/K/mol], [2]
Details	x2 = 0	x2 = 0.1566	x2 = 0.1597	x2 = 0.303	x2 = 0.3048	x2 = 0.4956	x2 = 0.7061	x2 = 0.8489
280 K, 100 kPa	–	–	–	–	–	–	68.95 ± 1.4	70.04 ± 1.4
280 K, 1000 kPa	76.81 ± 2	76.13 ± 1.9	–	71.92 ± 1.7	–	76.38 ± 1.6	69.48 ± 1.6	70.93 ± 1.4
280 K, 5000 kPa	75.62 ± 4.6	74.58 ± 4.3	–	74.17 ± 4	–	76.03 ± 3.9	72.68 ± 3.7	72.89 ± 3.6
300 K, 100 kPa	–	–	–	–	–	–	–	73.25 ± 0.54
300 K, 1000 kPa	–	78.19 ± 2.9	–	77.63 ± 2.8	–	80.94 ± 2.8	75.33 ± 2.7	74.86 ± 2.5
300 K, 5000 kPa	76.81 ± 3.4	76.13 ± 3.3	–	77.29 ± 3.1	–	78.83 ± 3	76.58 ± 2.8	74.86 ± 2.7
320 K, 1000 kPa	–	–	–	–	–	79.71 ± 2.1	75.51 ± 1.9	73.97 ± 2
320 K, 5000 kPa	77.83 ± 2	77.85 ± 1.9	–	80.93 ± 1.7	–	82.86 ± 1.8	79.41 ± 1.6	77.18 ± 1.6
360 K, 1000 kPa	–	–	–	–	–	–	79.77 ± 1.1	76.11 ± 0.89
360 K, 5000 kPa	95.2 ± 1.7	–	85.94 ± 1.4	–	84.92 ± 1.2	83.21 ± 1.2	81.72 ± 1.1	77.54 ± 1.1
360 K, 10000 kPa	92.82 ± 1.7	–	86.97 ± 1.4	–	88.21 ± 1.4	85.32 ± 1.1	84.55 ± 1.1	80.04 ± 1.1
360 K, 15000 kPa	90.26 ± 3.1	–	86.11 ± 2.6	–	86.65 ± 2.4	85.84 ± 2.3	84.73 ± 2.1	79.69 ± 2.1
